Source: US4104285A, “Taurine and glycine derivatives” (Hoffmann-La Roche Inc., priority 1977, dated 1978)

Tests used:
[1] = molecular target: T1, rat pancreatic lipase (Rattus norvegicus, UniProt P27657); test: inhibition of rat pancreatic lipase activity in vitro; assay type: biochemical; conditions: [14C]-triolein emulsion, pH 8.6, 20 min. at 37° C
T1 sequence (P27657 17-465): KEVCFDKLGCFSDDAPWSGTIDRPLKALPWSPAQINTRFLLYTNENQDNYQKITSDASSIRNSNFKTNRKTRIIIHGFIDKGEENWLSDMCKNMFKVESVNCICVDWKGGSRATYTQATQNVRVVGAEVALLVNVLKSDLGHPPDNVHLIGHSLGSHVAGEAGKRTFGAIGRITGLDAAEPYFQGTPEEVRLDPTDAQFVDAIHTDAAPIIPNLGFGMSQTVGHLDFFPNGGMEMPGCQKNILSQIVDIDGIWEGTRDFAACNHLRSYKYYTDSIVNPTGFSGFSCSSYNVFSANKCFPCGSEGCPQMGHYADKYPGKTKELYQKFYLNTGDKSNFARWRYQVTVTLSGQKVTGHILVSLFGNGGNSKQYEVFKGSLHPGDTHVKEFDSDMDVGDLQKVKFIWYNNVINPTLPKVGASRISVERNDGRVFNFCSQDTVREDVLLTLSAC
Procedure: Dietary long-chain triglycerides must be hydrolyzed by pancreatic lipase in the duodenum before absorption can occur. […] The capacity of compounds of formula I-C to inhibit rat pancreatic lipase in vitro was investigated by testing the following compounds: The ability of compounds to inhibit rat pancreatic lipase is determined by analyzing the nmoles of free fatty acid [oleic acid] released from [^14 C]-triolein. Compounds of A and B are added to an emulsion consisting of: 200,000 dmp ^14 C-triolein, 7.5 mg triolein, 0.75 mg sodium taurocholate, 15 mg bovine serum albumin and 0.9 ml 0.2 M tris-HCl - 0.15 M NaCl, pH 8.6, per assay. Water and/or pancreatic lipase is added to make an assay volume of 1.0 ml. The emulsion is incubated for 20 min. at 37° C in a shaking water bath. The reaction is stopped by the addition of isopropanol; H2 SO4 (40:1). The lipids are extracted twice with 3 ml volumes of hexane. The liberated fatty acids are extracted with 2 ml of 0.1 N aqueous KOH in 50% methanol. A 1 ml aliquot of the KOH layer is placed in a scintillation vial with 10 ml of 2,5-bis-2-(5-tertiary butyl benzoxazolyl)thiophene. The radioactivity is determined in a scintillation counter. Data are expressed a nmoles free fatty acid [oleic acid] related.

[2] = system: bile flow; test: stimulation of bile flow in rats, duodenal infusion; assay type: in vivo, female albino rats; conditions: 100 mg by duodenal infusion in 4ml emulsion, compared to rats which received only the emulsion
Procedure: The compounds of formula I-A are active in stimulation of bile flow which results in the dissolution of gall stones. This can be seen from the fact that when 100 mg of N-(3α,12α-dihydroxy-5β-24-norcholanoyl)-taurine was administered by duodenal infusion to female albino rats in a 4ml emulsion of sodium taurocholate in […], the flow of bile was increased 15% during the first 8 hours and 30% during the period of 9 to 15 hours after administration compared to the flow in rats which received only the emulsion without the taurine compound. […] This enabled the production of lymph at a constant rate, the infusion of a bile salt and the simultaneous collection of bile.

[3] = system: triglyceride absorption; test: effect on triglyceride absorption in vivo, rise in plasma triglycerides after oral load of corn oil; design: species or system rats
Procedure: The ability of compound I to inhibit the absorption of dietary triglyceride in rats is determined by analyzing the rise in serum triglycerides after an oral load of corn oil. […] In this procedure blood samples (0.4 ml) were collected from the rat tail 0, 2, 4, 6, 8 and 24 hours after compound administration. Each rat is its own control. Plasma samples were analyzed for triglyceride content by the procedure set forth in Kessler and Lederer, Tehnicon Symposium 1965 Automation in Analytical Chemistry Ed L. Skeggs, published Mediad Inc. New York (1966) pp 341. The data in Table I is expressed as mg% change in plasma triglyceride levels compared to zero time control values at each time interval. This change in plasma triglycerides was determined by calculating the difference between the triglyceride level at each time point compared to zero time contol level.

[4] = system: cholesterol level in the lymph; test: cholesterol level in thoracic duct lymph of rats after oral administration with 4-14C-cholesterol emulsion; assay type: in vivo, female albino rats (Charles River); conditions: 100mg orally, compared to control (Na-TC)
Procedure: The lowering of the cholesterol levels in mammals by the administration of the compound of formula I-B can be seen from the fact that when 100mg of N-(3α,12α-dihydroxyetiocholanoyl)glycine was administered orally to female albino rats, the cholesterol level in the lymph was decreased after administration by 86% over the first 8 hours and 94% over the next 9 to 24 hr. period after administration as compared to the control. In this procedure, female albino rats (Charles River), weighing 300 ± 10 g were kept on a Purina chow diet ad libitum until the time of operation. […] This preparation enabled the production of lymph at a constant rate, the infusion of a bile salt, and the simultaneous collection of bile. All animals received, after operation, a continuous duodenal infusion of sodium taurocholate (Na-TC) in 0.85% NaCl. One day after operation, the rats were given, by stomach intubation, an emulsion containing about 4% triolein, 20 μ C of 4-^14 C-cholesterol (Specific Activity 61.7 mC/mM, 159 μ C/mg), 2 mg of cholesterol, in addition to protein, carbohydrate, and saline. Both the Na-TC and the cholesterol carrier employed gave a single spot on either thin layer or glass fiber paper chromatograph so no further purification was attempted. […] An aliquot of the lipid extract was placed on a small piece of glass fiber paper and counted. […]

SMILES | Ki [1] | increase in flow of bile ([2]; during the first 8 hours after administration) | increase in flow of bile ([2]; period of 9 to 15 hours after administration) | ability to inhibit absorption of triglyceride ([3]; 1.1 m moles/kg orally 15 minutes before oral corn oil, 24 hour fasted rats) | Change in Plasma Triglyceride Levels, 4 hr ([3]; 1.1 m moles/kg orally 15 minutes before oral corn oil, 24 hour fasted rats, 4 hr vs zero time, Control 98 ± 31) | Change in Plasma Triglyceride Levels, 6 hr ([3]; 1.1 m moles/kg orally 15 minutes before oral corn oil, 24 hour fasted rats, 6 hr vs zero time, Control 161 ± 28) | Change in Plasma Triglyceride Levels, 8 hr ([3]; 1.1 m moles/kg orally 15 minutes before oral corn oil, 24 hour fasted rats, 8 hr vs zero time, Control 391 ± 58) | Change in Plasma Triglyceride Levels, 24 hr ([3]; 1.1 m moles/kg orally 15 minutes before oral corn oil, 24 hour fasted rats, 24 hr vs zero time, Control 130 ± 36) | Change in Plasma Triglyceride Levels, 2 hr ([3]; po) | decrease of cholesterol level in the lymph (4-14C-cholesterol, % decrease over the control) ([4]; first 8 hours after administration) | decrease of cholesterol level in the lymph (4-14C-cholesterol, % decrease over the control) ([4]; next 9 to 24 hr. period after administration)
C[C@H](CC(=O)NCCS(=O)(=O)O)[C@H]1CC[C@H]2[C@@H]3CC[C@@H]4C[C@H](O)CC[C@]4(C)[C@H]3C[C@H](O)[C@]12C [Compound A, N-(3α,12α-dihydroxy-5β-24-norcholanoyl)-taurine] | 7 mM | 15% | 30% |  |  |  |  |  |  |  | 
C[C@H](CC(=O)NCC(=O)O)[C@H]1CC[C@H]2[C@@H]3CC[C@@H]4C[C@H](O)CC[C@]4(C)[C@H]3C[C@H](O)[C@]12C [Compound B, N-(3α,12α-dihydroxy-5β-24-norcholanoyl)glycine] | 8 mM |  |  |  |  |  |  |  |  |  | 
C[C@]12CC[C@@H](O)C[C@H]1CC[C@@H]1[C@@H]2C[C@H](O)[C@]2(C)[C@@H](C(=O)NCC(=O)O)CC[C@@H]12 [N-(3α,12α-dihydroxyetiocholanoyl)glycine] |  |  |  | inhibit absorption of triglyceride | 107 ± 17 mg % | 130 ± 17 mg % | 167 ± 22 mg % | 46 ± 5 mg % | 29 ± 3 mg % | 86% | 94%
